Earlier results in patent US9205144B2, “Identification of conserved peptide blocks in homologous polypeptides” (Dana-Farber Cancer Institute, Inc., priority 2011, dated 2015).

Columns and labels:
[1] = biological target: HLA-03 (Homo sapiens, UniProt P04439)
[2] = system: HLA-11
[3] = system: HLA-31

Sequence of HLA-03 (P04439 25-365): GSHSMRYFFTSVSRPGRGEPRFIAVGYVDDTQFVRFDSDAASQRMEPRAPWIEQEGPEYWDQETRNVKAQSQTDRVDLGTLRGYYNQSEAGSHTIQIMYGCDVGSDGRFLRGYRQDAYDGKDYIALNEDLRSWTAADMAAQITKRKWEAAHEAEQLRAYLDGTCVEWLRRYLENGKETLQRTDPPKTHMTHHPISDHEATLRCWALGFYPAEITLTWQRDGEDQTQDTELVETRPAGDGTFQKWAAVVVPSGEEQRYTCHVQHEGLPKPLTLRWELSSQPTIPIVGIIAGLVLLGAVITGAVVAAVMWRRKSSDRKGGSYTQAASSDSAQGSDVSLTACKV
Sequence of HLA-03 (P61769 21-119, further chain): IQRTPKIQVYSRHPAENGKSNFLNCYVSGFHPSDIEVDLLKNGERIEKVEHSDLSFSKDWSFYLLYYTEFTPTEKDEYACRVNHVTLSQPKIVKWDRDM

KTFDTEYQK (listed as Dengue virus) [Peptide 1]
known ligand: ligand for HLA-03 [1] | ligand for HLA-11 [2] | ligand for HLA-31 [3]
